Measurements reported in patent US5856358A, “Mono- and disulfo-substituted anthraquinones and their use for the treatment of bone matrix disorders” (priority 1995, dated 1999).
Where two headings read alike, the source gives them in different places.

Experiments:
[1] = Adjuvant arthritis (Freund's complete adjuvant) in the rat: paw volume, radiography, histology; type: in vivo, rat (albino Sprague Dawley); settings: for Volume increase in the oedema after 15 days, left paw / Volume increase in the oedema after 15 days, right paw: 20 mg/kg/os; for Volume increase in the oedema after 15 days, left paw: left (adjuvant-injected) rear paw, control 252 ± 26; for Volume increase in the oedema after 15 days, right paw: right rear paw, control 77 ± 29
Method: The test evaluates the effect of the compounds anthraquinone-2,6-disulfonicacid and N,N'-diethylanthraquinone-2,6-disulfonamide on rheumatoid arthritis in the rat induced by administration of complete Freund's adjuvant. Diacetylrhein was used as control.
For the test, albino Sprague Dawley rats weighing 200±10 g, were subdivided into four groups of six animals each. All of the compounds were administered orally at a dosage of 20 mg/kg. Arthritis was induced administering all the animals, in the left rear paw, with 5 mg of Freund's complete adjuvant suspended in 0.05 ml of paraffin oil (prior to the treatment, the paw volume of both rear paws was measured). The treatment with the tested products started 5 days after the arthritis induction and was carried out for ten days. Al the end of this time, the animals were killed to effect the analysis of the following evaluation parameters: measurement of the volume of both left and right rear paws; Rx in lateral and antero-posterior position of the tibio-tarsal articulation of the left paw; histology evaluation of the articulation of both left and right rear paws.

[2] = background art; cited from earlier work
[3] = background art (U.S. Pat. No. 4,244,968); cited from earlier work
ceruloplasmin = settings: acute phase of arthritis inflammation; background art; cited from earlier work
human cathepsin B = target: T1, human cathepsin B (Homo sapiens, UniProt P07858); assay: Effects on human cathepsin B enzymatic activity; type: biochemical
T1 construct: purchased Calbiochem
Method: (§1) Effects on human cathepsin B and L enzymatic activity
(§2) The anthraquinone monosulfonated and disulfonated compounds were dissolved in distilled water whereas the derivatives thereof were dissolved in dimethylsulfoxide. The concentration of the tested product was added to the reaction mixture in a volume of 100 μl.
(§3) Composition of the reaction mixture: 0.005M acetate buffer pH 6.0+2 mM cysteine+1 mM EDTA; Enzyme 1 U/ml (cathepsin B or L) (Calbiochem); substrate 0.2 mM Z-Phe-Arg-AMC (Novabiochem) final reaction volume 2 ml; temperature 25° C.; observation time for cathepsin B: 2 minutes; for L: 8 minutes. This is a fluorimetric determination wherein the excitation wavelength was 380 nm, the emission one being instead 460 nm. Fluorescence was read by means of a Perkin-Elmer spectrophotometer mod. LS-3B.
Anthraquinone-2,6-disulfonic acid: 1-5-10 μM
Anthraquinone-1,5-disulfonic acid: 1-5-10 μM
N,N'-(p-Ethoxyphenyl)-2,6-anthraquinone-disulfonamide: 1-10 μM.

human cathepsin L = target: T2, human cathepsin L (Homo sapiens, UniProt P07711); assay: Effects on human cathepsin L enzymatic activity; type: biochemical
T2 construct: purchased Calbiochem
T2 sequence (P07711 114-288 limits assumed): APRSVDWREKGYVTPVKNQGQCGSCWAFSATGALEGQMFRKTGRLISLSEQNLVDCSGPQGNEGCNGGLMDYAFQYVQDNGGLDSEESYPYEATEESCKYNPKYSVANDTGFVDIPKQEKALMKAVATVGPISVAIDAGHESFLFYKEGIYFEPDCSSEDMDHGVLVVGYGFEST
T2 sequence (P07711 292-333 limits assumed): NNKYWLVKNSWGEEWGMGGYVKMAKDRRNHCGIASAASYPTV
Method: as §1, §2, §3

[4] = tested on: copper "scavenging" of superoxide anion produced by the hypoxanthine/xanthine oxidase system; assay: Copper "scavenging" effect (superoxide anion from hypoxanthine/xanthine oxidase system, cytochrome C); type: biochemical; settings: for % Reduction (effect on copper "scavenging" action): hypoxanthine/xanthine oxidase, cytochrome c
From the text: The study involves the production of superoxide anion by means of the hypoxanthine/xanthine oxidase system and the target is the reduction in cytochrome C iron content. […] Copper chelants inhibit such a "scavenging" effect.

[5] = tested on: Chinese hamster ovary (CHO) cells; assay: Test of induction of chromosomal aberrations; type: cell-based; settings: for Aberrations complex (C) / Aberrations simple (S) / Aberrations S + C: 100 metaphases; for Metaphases with aberrations: + S-9
Method: The clastogenetic effect of rhein and of 2,6-anthraquinonedisulfonic acid, was evaluated using the test of the induction of chromosomal aberrations in cell cultures of chinese hamster ovary (CHO). In this test, the cell line was treated with the tested substances and with suitable controls, in the presence of a metabolic activation system for four hours. After that, the cell in growth exponential phase were treated with colchicine (Colcemid^R) for 90 minutes, so as to obtain a significant number of cells in metaphase and to recover them for the preparation of the chromosome suspension. As the positive standard, cyclophosphamide was used (1-5-10-12.5-25 μg/ml).
The toxicity of the tested compounds was evaluated by means of the assay of the efficiency of plating, treating the cells for four hours, then seeding them at a concentration of 200 cells/5 ml of fresh culture medium.
On the ground of the results obtained by means of this test, dosages were selected for the treatment in the test of induction of chromosomal aberrations, so as not to exceed, with the highest dosage, 50% toxicity levels.
The chromosomal aberrations were recorded describing the type of structural damage. The numeric aberrations and gaps were discarded. Metaphases showing a good chromosomal opening, a good staining and an acceptable chromosome number (20±2) were selected. For statistical evaluations of the results, the quadratic Chi test was used.

[6] = tested on: superoxide anion from NADPH-dependent biological systems; settings: Mian M. et al. 1987; cited from earlier work
elastase = settings: from man; Raimondi 1982, Zembower 1992; cited from earlier work
cathepsin G = settings: from man; Raimondi 1982, Zembower 1992; cited from earlier work
[7] = 20 mg/kg orally, ten days, right paw
[8] = M (mean of experiments 1-3), read-out: % Inhibition
[9] = experiment n. 1, read-out: % Inhibition
[10] = experiment n. 2, read-out: % Inhibition
[11] = experiment n. 3, read-out: % Inhibition

CC(=O)Oc1cccc2c1C(=O)c1c(OC(C)=O)cc(C(=O)O)cc1C2=O [Diacetylrhein, diacetylrhein, reference compound]
inhibition (reduction) of the increase in the volume of the left rear paw ([1]; 20 mg/kg orally, ten days): 8.3%
effect on the increase in the volume of the right paw (in words) [1, 7]: complete lack in activity
formation of fibrous tissue in the articulation (histological examination) ([1]; 20 mg/kg orally, tibio-tarsal articulation): remarkably present
Volume increase in the oedema after 15 days, left paw [1]: 231 ± 22
Volume increase in the oedema after 15 days, right paw [1]: 92 ± 30
copper chelation [2]: copper chelating agent
calcium chelation [3]: calcium chelating agent
inhibition of the formation of ceruloplasmin (ceruloplasmin): inhibits the formation of ceruloplasmin

O=C1c2cccc(S(=O)(=O)O)c2C(=O)c2cccc(S(=O)(=O)O)c21 [1,5-anthraquinonedisulfonic acid, Anthraquinone-1,5-disulfonic acid]
inhibition at 1 µM (human cathepsin B; [8]): 3.4%
inhibition at 1 µM (human cathepsin B; [9]): 4.1%
inhibition at 1 µM (human cathepsin B; [10]): 3.6%
inhibition at 1 µM (human cathepsin B; [11]): 2.5%
inhibition at 5 µM (human cathepsin B; [8]): 9.6%
inhibition at 5 µM (human cathepsin B; [9]): 10.3%
inhibition at 5 µM (human cathepsin B; [10]): 7.2%
inhibition at 5 µM (human cathepsin B; [11]): 11.4%
inhibition at 10 µM (human cathepsin B; [8]): 44.4%
inhibition at 10 µM (human cathepsin B; [9]): 55.1%
inhibition at 10 µM (human cathepsin B; [10]): 36.6%
inhibition at 10 µM (human cathepsin B; [11]): 41.6%
inhibition at 1 µM (human cathepsin L; M (mean of tests 1-3)): 8.1%
inhibition at 1 µM (human cathepsin L; test n. 1): 10.5%
inhibition at 1 µM (human cathepsin L; test n. 2): 8.4%
inhibition at 1 µM (human cathepsin L; test n. 3): 5.5%
inhibition at 10 µM (human cathepsin L; M (mean of tests 1-3)): 54.3%
inhibition at 10 µM (human cathepsin L; test n. 1): 48.6%
inhibition at 10 µM (human cathepsin L; test n. 2): 60.5%
inhibition at 10 µM (human cathepsin L; test n. 3): 53.9%
% Reduction (effect on copper "scavenging" action) [4]: 4%

O=C(O)c1cc(O)c2c(c1)C(=O)c1cccc(O)c1C2=O [Rhein, rhein]
induction of chromosomal aberrations (in words) ([5]; doses of 100 and 200 μg/ml): positive
Aberrations complex (C) ([5]; rhein 25 μg/ml): 1
Aberrations simple (S) ([5]; rhein 25 μg/ml): 1
Aberrations S + C ([5]; rhein 25 μg/ml, N.S.): 2
Aberrations complex (C) ([5]; rhein 50 μg/ml): 3
Aberrations simple (S) ([5]; rhein 50 μg/ml): 1
Aberrations S + C ([5]; rhein 50 μg/ml, N.S.): 4
Aberrations complex (C) ([5]; rhein 100 μg/ml): 6
Aberrations simple (S) ([5]; rhein 100 μg/ml): 3
Aberrations S + C ([5]; rhein 100 μg/ml, P < 0.05): 9
Aberrations complex (C) ([5]; rhein 200 μg/ml): 5
Aberrations simple (S) ([5]; rhein 200 μg/ml): 3
Aberrations S + C ([5]; rhein 200 μg/ml, P < 0.05): 8
inhibition of copper "scavenging" effect (in words) [4]: inhibits said effect
% Reduction (effect on copper "scavenging" action) [4]: 45%
inhibition of formation and release of the superoxide anion [6]: inhibits the formation and release of the superoxide anion
inhibition of elastase activity (elastase): inhibits
inhibition of cathepsin G activity (cathepsin G): inhibits

O=C1c2ccc(S(=O)(=O)O)cc2C(=O)c2ccc(S(=O)(=O)O)cc21 [2,6-anthraquinonedisulfonic acid]
inhibition at 1 µM (human cathepsin B; M (mean of experiments 1-3)): 40.7%
inhibition at 1 µM (human cathepsin B; experiment n. 1): 43.7%
inhibition at 1 µM (human cathepsin B; experiment n. 2): 33.7%
inhibition at 1 µM (human cathepsin B; experiment n. 3): 38.5%
inhibition at 5 µM (human cathepsin B; M (mean of experiments 1-3)): 70.1%
inhibition at 5 µM (human cathepsin B; experiment n. 1): 68.5%
inhibition at 5 µM (human cathepsin B; experiment n. 2): 65.8%
inhibition at 5 µM (human cathepsin B; experiment n. 3): 76%
inhibition at 10 µM (human cathepsin B; M (mean of experiments 1-3)): 94.9%
inhibition at 10 µM (human cathepsin B; experiment n. 1): 98.9%
inhibition at 10 µM (human cathepsin B; experiment n. 2): 98.2%
inhibition at 10 µM (human cathepsin B; experiment n. 3): 87.7%
inhibition at 1 µM (human cathepsin L; M (mean of tests 1-3)): 35.6%
inhibition at 1 µM (human cathepsin L; test n. 1): 39.6%
inhibition at 1 µM (human cathepsin L; test n. 2): 31.4%
inhibition at 1 µM (human cathepsin L; test n. 3): 35.8%
inhibition at 10 µM (human cathepsin L; M (mean of tests 1-3)): 94.5%
inhibition at 10 µM (human cathepsin L; test n. 1): 92.1%
inhibition at 10 µM (human cathepsin L; test n. 2): 96.5%
inhibition at 10 µM (human cathepsin L; test n. 3): 94.8%
inhibition (reduction) of the increase in the volume of the left rear paw ([1]; 20 mg/kg orally, ten days): 18.6%
inhibition of the increase in the volume of the right paw [1, 7]: 67.5%
Volume increase in the oedema after 15 days, left paw [1]: 205 ± 41
Volume increase in the oedema after 15 days, right paw [1]: 25 ± 20
Metaphases with aberrations ([5]; 50 μg/ml, 100 total metaphases, N.S.): 2
Metaphases with aberrations ([5]; 100 μg/ml, 100 total metaphases, N.S.): 4
Metaphases with aberrations ([5]; 150 μg/ml, 100 total metaphases, N.S.): 8
Metaphases with aberrations ([5]; 200 μg/ml, 100 total metaphases, N.S.): 8
Metaphases with aberrations ([5]; 250 μg/ml, 100 total metaphases, N.S.): 6
induction of chromosomal aberrations (in words) ([5]; 50-250 μg/ml): induces no chromosomal aberrations

O=C1c2ccccc2C(=O)c2cc(S(=O)(=O)O)ccc21 [2-AQ, 2-anthraquinonesulfonic acid]
inhibition of copper "scavenging" effect (in words) [4]: nearly inactive
% Reduction (effect on copper "scavenging" action) [4]: 5%

O=P1(N(CCCl)CCCl)NCCCO1 (centres unmarked) [CPS, Cyclophosphamide]
Metaphases with aberrations ([5]; 1 μg/ml, 100 total metaphases, N.S.): 10
Metaphases with aberrations ([5]; 5 μg/ml, 100 total metaphases, P < 0.001): 25
Metaphases with aberrations ([5]; 10 μg/ml, 32 total metaphases, P < 0.001, control 13 of 220): 12
Aberrations complex (C) ([5]; CPS 12.5 μg/ml): 44
Aberrations simple (S) ([5]; CPS 12.5 μg/ml): 0
Aberrations S + C ([5]; CPS 12.5 μg/ml, P < 0.001): 44
Aberrations S + C ([5]; CPS 25 μg/ml, P < 0.001, control 12 of 400): 87
Aberrations complex (C) ([5]; CPS 25 μg/ml, control 4 of 400): 87
Aberrations simple (S) ([5]; CPS 25 μg/ml, control 8 of 400): 0

CCNS(=O)(=O)c1ccc2c(c1)C(=O)c1ccc(S(=O)(=O)NCC)cc1C2=O [N,N'-Diethyl-2,6-anthraquinonedisulfonamide]
inhibition (reduction) of the increase in the volume of the left rear paw ([1]; 20 mg/kg orally, ten days): 21.4%
inhibition of the increase in the volume of the right paw [1, 7]: 62.3%
Volume increase in the oedema after 15 days, left paw [1]: 198 ± 31
Volume increase in the oedema after 15 days, right paw [1]: 29 ± 12

O=C1c2ccccc2C(=O)c2c1cccc2S(=O)(=O)O [1-AQ, 1-anthraquinonesulfonic acid]
inhibition of copper "scavenging" effect (in words) [4]: nearly inactive
% Reduction (effect on copper "scavenging" action) [4]: 3%

CCOc1ccc(NS(=O)(=O)c2ccc3c(c2)C(=O)c2ccc(S(=O)(=O)Nc4ccc(OCC)cc4)cc2C3=O)cc1 [N,N'-(p-Ethoxyphenyl)-2,6-anthraquinonedisulfonamide]
inhibition at 1 µM (human cathepsin B; [8]): 19%
inhibition at 1 µM (human cathepsin B; [9]): 23.7%
inhibition at 1 µM (human cathepsin B; [10]): 18.6%
inhibition at 1 µM (human cathepsin B; [11]): 14.8%
inhibition at 10 µM (human cathepsin B; [8]): 80.2%
inhibition at 10 µM (human cathepsin B; [9]): 76.6%
inhibition at 10 µM (human cathepsin B; [10]): 80.6%
inhibition at 10 µM (human cathepsin B; [11]): 83.4%
inhibition at 1 µM (human cathepsin L; M (mean of tests 1-3)): 8.8%
inhibition at 1 µM (human cathepsin L; test n. 1): 8.5%
inhibition at 1 µM (human cathepsin L; test n. 2): 7.1%
inhibition at 1 µM (human cathepsin L; test n. 3): 10.9%
inhibition at 10 µM (human cathepsin L; M (mean of tests 1-3)): 55.2%
inhibition at 10 µM (human cathepsin L; test n. 1): 53.6%
inhibition at 10 µM (human cathepsin L; test n. 2): 48.1%
inhibition at 10 µM (human cathepsin L; test n. 3): 63.8%
